Source: patent US11220674B2, “Stabilization of dehydrogenases with stable coenzymes” (ROCHE DIABETES CARE, INC., priority 2009, dated 2022)

Assays:
[1] = molecular target: glucose dehydrogenase/NAD system (Bacillus subtilis, UniProt P12310); test: Photometric glucose determination with GlucDH/NAD, mediator and 2,18-phosphomolybdic acid (reflectance); details: for reflectance of the measured sample: glucose concentration in the region of 800 mg/dl; for reflectance versus glucose concentration: test elements stored at room temperature for 11 weeks, GlucDH, NAD, mediator, 2,18-phosphomolybdic acid
Procedure: To determine glucose, various test systems which included in each case glucose dehydrogenase, NAD, a mediator and, where appropriate, an optical indicator were measured photometrically and electrochemically.
For photometric measurements, initially four test elements which had in each case been stored at room temperature for 11 weeks and comprised 2,18-phosphomolybdic acid, besides glucose dehydrogenase, NAD and a mediator, were investigated with various glucose concentrations.

[2] = molecular target: T1, glucose dehydrogenase (GlucDH) (Bacillus subtilis, UniProt P12310); test: Stability of GlucDH in liquid phase at 50° C. with coenzyme (residual activity); format: biochemical
Procedure: FIG. 11A is a depiction of the stability of glucose dehydrogenase in the presence of NAD and cNAD, respectively, in liquid phase at 50° C. over a period of 4 days Test conditions: GlucDH 10 mg/ml; NAD and cNAD, respectively, 12 mg/ml; buffer: 0.1 M Tris, 1.2 M NaCl, pH 8.5; temperature 50° C.
FIG. 11B is a depiction of the stability of glucose dehydrogenase in the presence of NAD and cNAD, respectively, in liquid phase at 50° C. over a period of 14 days at the same test conditions as FIG. 11A.
After 95 hours at 50° C., the residual activity of glucose dehydrogenase in the presence of the native coenzyme NAD is ≈5%, whereas the residual activity of GlucDH in the presence of the artificial coenzyme cNAD is 75% (FIG. 11A). After storage at 50° C. for 336 hours, the residual activity of the enzyme stabilized with NAD is now only about 1%; the residual activity of the enzyme stored in the presence of cNAD is observed to be still about 70%.

[3] = molecular target: glucose dehydrogenase (GlucDH), wild-type (Bacillus subtilis, UniProt P12310); test: Residual activity of GlucDH after dry storage on film with coenzyme; format: biochemical
Procedure: (§1) Carba-NAD (FIG. 1A) or NAD were added to the glucose-specific GlucDH. These formulations were in each case applied to Pokalon film (Lonza) and, after drying, stored under warm and moist conditions (32° C., 85% relative humidity). The reaction kinetics and the function plot were subsequently determined at regular intervals. In parallel, at each of the times of measurement a cNAD/NAD analysis and a determination of the residual activity of the enzyme were carried out.
The result of the determination of residual activity of the active GlucDH enzyme after 5 weeks at 32° C. and 85% relative humidity (FIG. 7A) is completely surprising. […] After 24 weeks at 32° C. and 85% relative humidity (FIG. 7B), the residual activity of the enzyme on stabilization with cNAD is still about 25%.

[4] = molecular target: T2, alcohol dehydrogenase from yeast (Saccharomyces cerevisiae, UniProt P00330); test: Stability of alcohol dehydrogenase in liquid phase at 35° C. with coenzyme (residual activity); format: biochemical; details: after 65 hours at 35° C.
T2 sequence (P00330 1-348): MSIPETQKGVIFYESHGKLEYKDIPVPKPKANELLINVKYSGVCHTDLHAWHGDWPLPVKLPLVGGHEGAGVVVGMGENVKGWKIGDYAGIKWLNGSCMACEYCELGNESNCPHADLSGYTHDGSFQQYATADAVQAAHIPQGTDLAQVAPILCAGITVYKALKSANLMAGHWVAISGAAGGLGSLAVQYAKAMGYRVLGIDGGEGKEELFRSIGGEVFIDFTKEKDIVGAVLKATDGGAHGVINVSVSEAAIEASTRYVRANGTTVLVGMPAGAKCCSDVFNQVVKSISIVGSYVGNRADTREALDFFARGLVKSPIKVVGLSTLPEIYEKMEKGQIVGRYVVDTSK
Procedure: FIG. 14 is a depiction of the stability of alcohol dehydrogenase from yeast in the presence of NAD and cNAD, respectively, in liquid phase at 35° C. over a period of 65 hours. Test conditions: ADH 5 mg/ml; NAD and cNAD, respectively, 50 mg/ml; buffer: 75 mM Na4P207, glycine, pH 9.0; temperature 35° C.
(§2) cNAD or NAD were added to an alcohol detection solution. These mixtures were stored at 35° C. The stability of the enzyme was then checked at regular intervals, and the residual activity of the enzyme was determined.
After 65 hours at 35° C., the residual activity of alcohol dehydrogenase in the presence of the native coenzyme NAD is about 6%, whereas the residual activity of the enzyme in the presence of the artificial coenzyme cNAD is still about 60%.

[5] = molecular target: T1, glucose dehydrogenase (GlucDH); test: Reaction kinetics, function plot and dry blank value of GlucDH test film after storage; format: biochemical
Procedure: as §1
However, a distinct difference in the kinetics plots is evident after 5 weeks.
There is also a distinct difference in the blank values (dry blank value before application of a blood sample), as is evident from FIG. 3.
The differing stability of glucose dehydrogenase in the presence of NAD and cNAD, respectively, is also evident from comparison of FIGS. 4 and 5.

[6] = Residual content of coenzyme in glucose detection reagent after dry storage on film (cNAD/NAD analysis); format: physicochemical; details: storage at 32° C. and 85% relative humidity for 24 weeks
Procedure: as §1
The relation between structure of the coenzyme and its stability over a predetermined period is evident from FIG. 6. According to this, the residual content of cNAD in a glucose detection reagent after storage (at 32° C. and 85% relative humidity) for 24 weeks is still about 80% of the initial level, whereas the content of NAD in a glucose detection reagent stabilized with NAD declines after only 5 weeks to about 35% of the initial level and, by extrapolation, is reduced to zero after about 17 weeks.

[7] = molecular target: GlucDH_E96G_E170K (GlucDH-Mut1) (Bacillus subtilis, UniProt P12310, A229V/A236S/E170K/E96G/Q252K); test: Residual activity of GlucDH mutant after dry storage with coenzyme; format: biochemical; details: storage at 32° C. and 85% relative humidity for 24 weeks
Procedure: (§3) FIG. 8 is a depiction of the GlucDH activity after storage of glucose dehydrogenase (GlucDH wt), the double mutant GlucDH_E96G_EI70K (GlucDH Mut1) and the double mutant GlucDH_E170K_K252L (GlucDH Mut2) in the presence of NAD and cNAD, respectively, at 32° C. and 83% relative humidity over a period of 25 weeks.
as §1
(§4) If a mutant is used instead of the wild-type enzyme (from Bacillus subtilis), it is possible to increase the residual GlucDH activity even further. […]

[8] = molecular target: GlucDH_E170K_K252L (GlucDH-Mut2) (Bacillus subtilis, UniProt P12310, A229V/A236S/E170K/Q252L); test: as above; format: biochemical; details: storage at 32° C. and 85% relative humidity for 24 weeks
Procedure: as §3, §1, §4

[9] = molecular target: T2, alcohol dehydrogenase from yeast; test: SDS gel electrophoresis of alcohol dehydrogenase after storage with coenzyme
Procedure: Test conditions: MW, 10 220 kDa markers; 1: ADH, 65 hours at 6° C.; 2: ADH/cNAD, 65 hours at 6° C.; 3: ADH/NAD, 65 hours at 6° C.; 4: ADH, 65 hours at 35° C.; 5: ADH/cNAD, 65 hours at 35° C.; 6: ADH/NAD, 65 hours at 35° C.
Test conditions: MW, 10 220 kDa markers; 1: ADH/NAD, 0 days; 2: ADH/NAD, 1 day; 3: ADH/NAD, 2 days; 4: ADH/NAD, 3 days; 5: ADH/NAD, 5 days; 6: ADH/cNAD, 0 days; 7: ADH/cNAD, 1 day; 8: ADH/cNAD, 2 days; 9: ADH/cNAD, 3 days; 10: ADH/cNAD, 6 days.
as §2

glucose dehydrogenase = glucose dehydrogenase (Bacillus subtilis, UniProt P12310); test: Electrochemical glucose determination with GlucDH, coenzyme and mediator (current); details: 25 mM coenzyme; mediator 1-(3-carboxypropoxy)-5-ethylphenazinium trifluoromethanesulfonate
Procedure: FIG. 20 is a depiction of the current measured as a function of the glucose concentration in the electrochemical determination of glucose using glucose dehydrogenase in the presence of NAD and cNAD, respectively. Test conditions: 25 mM NAD and cNAD, respectively; 2.5 seconds delay; 5 seconds measurement time.
As alternative to photometry it is also possible to employ an electrochemical measurement for the purpose of determining analytes.

[10] = molecular target: T1, glucose dehydrogenase (GlucDH); test: SDS gel electrophoresis of GlucDH after storage with coenzyme
Procedure: Test conditions: MW, 10 220 kDa markers; 1: GlucDH/NAD, 5 weeks at 6° C.; 2: GlucDH/NAD, 5 weeks at 32° C./85% relative humidity; 3: GlucDH/cNAD, 5 weeks at 6° C.; 4: GlucDH/cNAD, 5 weeks at 32° C./85% relative humidity.
Test conditions: MW, 10 220 kDa markers; 1: GlucDH 8.5 mg/ml, NAD, 0 hours; 2: GlucDH 8.5 mg/ml, NAD, 22 hours; 3: GlucDH 8.5 mg/ml, NAD, 96 hours; 4: GlucDH 8.5 mg/ml, NAD, 118 hours; 5: GlucDH 8.5 mg/ml, NAD, 140 hours; 6: GlucDH 8.5 mg/ml, NAD, 188 hours; 7: GlucDH 8.5 mg/ml, NAD, 476 hours; 8: GlucDH 8.5 mg/ml, cNAD, 0 hours; 9: GlucDH 8.5 mg/ml, cNAD, 188 hours; 10: GlucDH 8.5 mg/ml, cNAD, 476 hours.

[11] = storage at 50° C. for 336 hours
[12] = after 5 weeks at 32° C. and 85% relative humidity, versus samples stored in refrigerator with desiccant

SMILES	reflectance of the measured sample [1]	reflectance versus glucose concentration [1]	residual activity of glucose dehydrogenase ([2]; after 95 hours at 50° C.)	residual activity of glucose dehydrogenase [2, 11]	residual activity of GlucDH enzyme [3, 12]	residual activity of alcohol dehydrogenase [4]	other results
CC[n+]1c2ccccc2nc2c(OCCCC(=O)O)cccc21.O=S(=O)([O-])C(F)(F)F [Med G, 1-(3-carboxypropoxy)-5-ethylphenazinium trifluoromethanesulfonate]	about 20%	a fall in the reflectance was observed with increasing glucose concentration					
Cl.O=Nc1ccc(N(CO)CO)cc1 [Med A, [(4-nitrosophenyl)imino]dimethanol hydrochloride]	about 20%	a fall in the reflectance was observed with increasing glucose concentration					
C[n+]1cccc2c1-c1ncccc1C(=O)C2=O.O=S(=O)([O-])C(F)(F)F [Med B, 1-methyl-5,6-dioxo-5,6-dihydro-1, 10-phenanthrolinium trifluoromethanesulfonate]		a fall in the reflectance was observed with increasing glucose concentration					
NC(=O)c1ccc[n+]([C@@H]2O[C@H](COP(=O)([O-])OP(=O)(O)OC[C@H]3O[C@@H](n4cnc5c(N)ncnc54)[C@H](O)[C@@H]3O)[C@@H](O)[C@H]2O)c1 [NAD, nicotinamide adenine dinucleotide, reference compound]			≈ 5%	about 1%	0.5%	about 6%	
C[n+]1cccc2c1C(=O)C(=O)c1cccnc1-2.O=S(=O)([O-])C(F)(F)F [Med F, 7-methyl-5,6-dioxo-5,6-dihydro-1,7-phenanthrolinium trifluoromethanesulfonate]		a fall in the reflectance was observed with increasing glucose concentration					
NC(=O)c1ccc[n+]([C@@H]2C[C@H](COP(=O)([O-])OP(=O)(O)OC[C@H]3O[C@@H](n4cnc5c(N)ncnc54)[C@H](O)[C@@H]3O)[C@@H](O)[C@H]2O)c1 [cNAD, carba-NAD]			75%	about 70%	70%	about 60%	function plot of GlucDH after storage ([5]; after 5 weeks at 32° C., 85% humidity): still in the bunch of previous measurements; kinetics plots of GlucDH after storage ([5]; after 5 weeks at 32° C., 85% relative humidity): remain virtually unchanged; function plot of GlucDH after storage ([5]; over 24 weeks at 32° C., 85% humidity): only slightly changed at high glucose concentrations; dry blank value (before application of blood sample) ([5]; up to 5 weeks at 32° C., 85% humidity): this does not occur; residual content of coenzyme in glucose detection reagent [6]: about 80 % of the initial level; residual activity of GlucDH_E96G_E170K mutant [7]: about 70%; residual activity of GlucDH_E170K_K252L mutant [8]: about 50%; residual activity of GlucDH enzyme ([3]; after 24 weeks at 32° C. and 85% relative humidity): about 25%; alcohol dehydrogenase band in SDS gel ([9]; storage at 35° C., NAD 5 days, cNAD 6 days): distinctly less decomposition of the enzyme; alcohol dehydrogenase band in SDS gel ([9]; storage for 65 hours at 35° C. (versus 6° C.)): differ only slightly; current required to reoxidize the reduced mediator versus glucose concentration (glucose dehydrogenase): linearly dependent on the glucose concentration; enzyme band in SDS gel ([10]; storage at 50° C., after 476 hours): only slight change; enzyme band in SDS gel ([10]; storage for 5 weeks at 32° C. and 85% relative humidity): still identifiable as a band with the expected mobility
